Series [1] deals with SH-SP rats with MCA permanent occlusion. Briefly: TTC staining of cerebral infarct lesion 24 hours after MCA permanent occlusion. It is filed as in vivo, rat.
Series [2] concerns Wistar rats with spinal cord injury. Briefly: Spinal cord injury model (20 g compression on lower thoracic cord for 20 minutes). It is filed as in vivo, rat. As to conditions: for paralysis or paraplegia of both lower limbs: Solu-Medrol intravenous 30 mg/kg on the same schedule, 30 mg/kg. From the text: The present inventors have investigated the effects of repetitive or continuous intravenous administration of ginsenoside Rb1 using rats with spinal cord injury and the effects were compared with those of repetitive or continuous intravenous administration of a crude saponin fraction of medicinal ginseng. If pressure is loaded on certain spinal segments such as the lower thoracic cord, not only nerve cells (neurons) in the gray matter of the same region but also fiber tracts or pathways in the white matter of the same region are damaged. The damages to the fiber tracts or pathways of the white matter are further developed to the distal portions (caudal portions) as well as causing the secondary degeneration of the origins of the fiber tract or pathways, namely the upper nerve cell bodies (i.e. origins) which project fibers (nerve processes) to the fiber tracts or pathways. As a result, the damages to the fiber tracts or pathways of the white matter in the lower thoracic cord, which received compression loading, induce the secondary degeneration of the origins (nerve cell bodies) sending fibers (also termed nerve processes or axons) to the fiber tracts or pathways as well as the secondary degeneration of fiber tracts located distal to the lower thoracic cord (i.e. lumbar cord and sacral cord) to cause paraplegia of both limbs. Further, since the innervation from the brain regions proximal to the lumbar cord and sacral cord is cut off due to damage to the lower thoracic cord, the secondary degeneration of nerve cells in the gray matters of the lumbar cord and sacral cord is further induced, as a result, paraplegia of the limbs can not be recovered. For that model of the spinal cord injury, the present inventors have used male Wistar rats (body weight about 300 g) loaded with 20 g of compression on the lower thoracic cord for 20 minutes.
Under inhalation anesthesia by a mixture of nitrous oxide and halothane, the rats were loaded with 20 g of compression on the lower thoracic cord for 20 minutes. After more than 30 minutes passed, ginsenoside Rb1 dissolved in physiological saline was injected once into the left femoral vein (12 μg or 60 μg), thereafter continuous or repetitive intravenous administration of ginsenoside Rb1 was performed for 7 days by using an Alza osmotic minipump (12 μg/day or 60 μ/day). Control animals and sham-operated animals were administered with the same amount of physiological saline (vehicle) alone. The open field locomotor scores [Basso, Bettie and Bresnakan (BBB) scores] were measured in each animal before loading spinal cord injury, on the day of spinal cord injury and from 1st day to 7th day after the spinal cord injury for use as an index of motor functions (Basso D. M. et al., J. Neurotrauma, 13, 343-359, 1996). BBB scores of the sham-operated rats (normal rats) were 20-21.
Under inhalation anesthesia by a mixture of nitrous oxide and halothane, the rats were loaded with 20 g of compression on the lower thoracic cord for 20 minutes. More than 30 minutes later, the crude saponin fraction dissolved in physiological saline was infused once into the left femoral vein (870 μg), thereafter continuous intravenous administration of the crude saponin fraction was performed for 7 days by using an Alza osmotic minipump (870 μg/day). Control animals with spinal cord injuries were administered with the same amount of physiological saline (vehicle) alone. […] These figures are photographs in place of drawings.
Under inhalation anesthesia by a mixture of nitrous oxide and halothane, wistar rats (body weight about 300 g) were loaded with 20 g of compression on the lower thoracic cord for 20 minutes. After they were awakened from anesthesia, the rats with paraplegia in both hindlimbs were allowed to stay for 1 hour and 40 minutes in the cage. […]

With `CC(C)CCC[C@](C)(O[C@@H]1O[C@H](CO[C@@H]2O[C@H](CO)[C@@H](O)[C@H](O)[C@H]2O)[C@@H](O)[C@H](O)[C@H]1O)[C@H]1CC[C@]2(C)[C@@H]1[C@H](O)C[C@@H]1[C@@]3(C)CC[C@H](O[C@@H]4O[C@H](CO)[C@@H](O)[C@H](O)[C@H]4O[C@@H]4O[C@H](CO)[C@@H](O)[C@H](O)[C@H]4O)C(C)(C)[C@@H]3CC[C@]12C` [dihydroginsenoside Rb1], the “cerebral infarct lesion (TTC staining)” value in series [1] (dihydroginsenoside Rb1 intravenous 6 μg/day for 24 hours after MCA permanent occlusion) is on record as “markedly reduced”. Further, the “volume of cerebral infarct lesion relative to non-administered group” value in series [1] (intravenous low doses) is “about ¼”.
With `C[C@H]1C[C@@H]2[C@H]([C@@H](O)C[C@@]3(C)[C@H]2CC[C@]3(O)C(=O)COC(=O)CCC(=O)[O-])[C@@]2(C)C=CC(=O)C=C12.[Na+]` [reference compound], in series [2] (Solu-Medrol 30 mg/kg, 4 out of 10 rats), the “experimental animals died within 7 days after spinal cord injuries” value is “about 40%”. The “paralysis or paraplegia of both lower limbs” value in series [2] is “no significant ameliorating effects”; in series [2] (listed as Solu-Medol), “could not ameliorate”. Moreover, the “healing of the operative dorsal wounds / ill effects” value in series [2] (rat, in vivo) is reported as “obviously delayed”.
